Measured values reported in patent US20200017823A1, “HYDROGEL COMPOSITIONS FOR USE IN NEURAL CELL EXPANSION AND DIFFERENTIATION” (Wisconsin Alumni Research Foundation, priority 2018, published 2020).
Read-outs that look alike come from different tables or passages of the source.

Tests used:
iCell Neurons [1] = experiment: High-content imaging with skeleton network analysis: neurite branches versus cell viability
Description: All data points are mean±SEM. FIG. 14A: Dexamethasone. FIG. 14B: Colchicine.
Commercially available human iPSC-derived neurons (iCell Neurons) and their supporting media were purchased from Cellular Dynamics International (CDI, Madison, Wis.). Previously characterized iCell Neurons represent a mixture of post-mitotic GABAergic and glutamatergic neurons with >95% purity. The cells were received, frozen, thawed, and plated following a protocol recommended by CDI. Briefly, cells were plated on poly-L-lysine pre-coated 384 well plates (Greiner Bio-One) with PEG-NB hydrogels, 3.3 μg/ml laminin, or 60-120 μg/ml […]®.

iCell Neurons [2] = experiment: Synthetic hydrogel-based network formation/inhibition assay (total network area); format: cell-based, human; details: PLL/Laminin and MATRIGEL screening systems
From the text: Total network area was quantified by thresholding neurite processes and cell bodies stained with immunofluorescent tags for βIII-tubulin and MAP2. The resulting data was compared using the Z′ statistic to assess the accuracy of the synthetic hydrogel, PLL/Laminin, and MATRIGEL® screening systems in distinguishing neuronal networks disrupted by the known microtubule inhibitor Colchicine from non-inhibited networks.

SMILES	cell viability (iCell Neurons [1])	neurite branches / neurite growth (iCell Neurons [1])	neuronal network (total network area, βIII-tubulin and MAP2 stain) (iCell Neurons [2])	neurite branches / neurite growth (iCell Neurons [1]; synthetic substrate, treated after 120-hour growth, exposed 120 hours, media replenished daily, compared to cell viability)
NC(=O)N1c2ccccc2C=Cc2ccccc21 [Carbamazepine]	reduced viability	apparent inhibition	–	–
COc1cc2c(c(OC)c1OC)-c1ccc(OC)c(=O)cc1[C@@H](NC(C)=O)CC2 [Colchicine]	–	–	disrupted	significant reductions
C[C@@H]1C[C@H]2[C@@H]3CCC4=CC(=O)C=C[C@]4(C)[C@@]3(F)[C@@H](O)C[C@]2(C)[C@@]1(O)C(=O)CO [Dexamethasone]	–	significant reductions	–	–
